The source of these data is US20050026223A1, “Method and compositions for increasing bone mass” (The Board of Trustees of the University of Arkansas, priority 1999, published 2005).

The test system of test [1] is osteoblastic cells derived from murine calvaria. Briefly: Etoposide-induced apoptosis of osteoblastic cells derived from murine calvaria (trypan blue uptake). The class given is cell-based. The protocol:
Osteoblastic cells derived from murine calvaria were pretreated with the sterols for 1 hour before the addition of the pro-apoptotic agent, etoposide. Apoptosis was determined after 6 hours by trypan blue uptake (Jilka et al, J. Bone and Min. Res. 13:793:802, 1998). * indicates p<0.05 versus etoposide alone, by analysis of variance (ANOVA) (Student-Newman-Keuls method).
Osteoblastic cells derived from murine calvaria were pretreated for 1 hour with the pure receptor antagonist ICI182,780 (10^−7 M) before the addition of the test agents (10^−8 M). Apoptosis was induced and quantified as described in FIG. 3. * indicates p<0.05 versus etoposide alone, by ANOVA (Student-Newman-Keuls method).
In this experiment, osteoblastic cells were derived from murine calvaria and were pretreated with the sterols for 1 hour before the addition of the pro-apoptotic agent, etoposide.
In these experiments, cells were pretreated with the indicated concentrations of the various compounds for 1 hour, in the absence or presence of the androgen receptor antagonist flutamide, before the addition of the proapoptotic agent etoposide. Apoptosis was determined after 6 hours by trypan blue uptake as described in FIG. 3.

A short description of test [2]: Vertebral compression strength of fifth lumbar vertebrae (L5). The note with it: 2000 ng/g body weight for 28 days, mean. It counts as in vivo, mice. How it is done: In a representative experiment of this sort, seven 4-5 month old female mice per group are screened twice for BMD in a four week period immediately prior to the initiation of the experiment to establish that peak adult bone mass has been attained. A subset of mice are then ovariectomized. Intact and ovariectomized mice are treated with vehicle, or 20, 200 or 2000 ng/g body weight estratriene-3-ol or another ANGEL compound. […] Ultimate load bearing properties of the fifth lumbar murine vertebrae (L5) is determined. This is done using a servohydraulic axial-torsional material testing machine (Model MTS 810 Bionx; MTS Systems Corp., Eden Prairie, Minn.) and a Lebow load cell (Eaton Products, Troy, Mich.). Data are recorded and analyzed using the LabVIEW software package and an acquisition/signal conditioning board (Model NB-MIO-16, National Instruments Corporation, Austin, Tex.). The L5 specimens that is used for ultimate load bearing is cleaned of surrounding soft tissue and the length and diameter recorded with a digital caliper at a resolution of 0.01 mm (Mitutoyo Model #500-196, Ace Tools, Ft. Smith, Ark.). […] Vertebrae are individually compressed between parallel loading platens along the cephalocaudad axis until failure and the ultimate load (in Newtons) and displacement (in mm) are recorded. […]

Test [3] has as its target T1, human ERα (Homo sapiens, UniProt P03372).
T1 construct: expressed in transfected cells; host or cells: 293 (human embryonic kidney) cells
T1 sequence (P03372 1-595): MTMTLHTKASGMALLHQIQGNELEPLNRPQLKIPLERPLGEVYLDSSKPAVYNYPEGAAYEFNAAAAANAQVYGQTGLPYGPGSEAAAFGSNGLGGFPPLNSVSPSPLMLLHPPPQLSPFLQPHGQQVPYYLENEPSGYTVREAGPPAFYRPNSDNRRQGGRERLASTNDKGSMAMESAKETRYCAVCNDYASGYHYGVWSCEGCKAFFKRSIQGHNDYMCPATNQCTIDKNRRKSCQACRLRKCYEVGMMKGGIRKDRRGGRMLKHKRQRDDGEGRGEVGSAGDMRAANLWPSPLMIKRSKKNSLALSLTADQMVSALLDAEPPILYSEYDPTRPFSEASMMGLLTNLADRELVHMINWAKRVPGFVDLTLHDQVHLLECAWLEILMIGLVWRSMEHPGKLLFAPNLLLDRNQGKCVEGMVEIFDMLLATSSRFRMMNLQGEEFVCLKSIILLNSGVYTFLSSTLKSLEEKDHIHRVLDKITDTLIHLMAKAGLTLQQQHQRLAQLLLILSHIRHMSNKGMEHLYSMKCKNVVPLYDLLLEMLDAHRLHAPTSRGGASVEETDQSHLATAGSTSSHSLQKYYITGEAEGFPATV
Description: Estrogen response element luciferase reporter in 293 cells overexpressing hERα. It counts as cell-based. The note with it: 3 copies ERE-luciferase. From the text:
The human ERα was overexpressed in 293 cells lacking ERα along with a reporter construct containing 3 copies of an estrogen response element driving the luciferase gene. Light units were counted and normalized to coexpressed b-galactosidase activity to control for differences in transfection efficiency. Results represent percent stimulation compared to ERα transfected cells, but not treated with the two agents. Each bar represents mean of duplicate experiments +/−SEM. *p<0.001 vs. cells not exposed to the sterols.
In this experiment, hERα was overexpressed in 293 cells (which lack constitutive ERα) along with a reporter construct containing 3 copies of an estrogen response element driving the luciferase gene. Light units were counted and normalized to coexpressed β-galactosidase activity to control for differences in transfection efficiency.
For orientation: Reporter assays use an easily measured gene product as a stand-in for the process of interest.

Test [4] has as its system HeLa cells transfected with the estrogen receptor α (mERα). Description: Etoposide-induced apoptosis of HeLa cells stably transfected with mERα. It counts as cell-based, human. As to conditions: compound 10^−8 M 1 h, etoposide 5×10^−5 M 6 hour. From the text:
(§1) CMV promoter alone and CMV promoter-driven cDNA for mERα or mErβ were stably transfected into HeLa cells. […] Cells were trypsinized, pelleted and trypan blue positive cells enumerated.
(§2) In this experiment, instead of calvaria cells, human HeLa cells which contain undetectable, if any, estrogen receptor were used. HeLa cells were stably transfected with either a CMV promoter-driven cDNA for the murine estrogen receptor-alpha (mERα) or a CMV promoter-driven cDNA for the murine estrogen receptor-beta (mERβ). […] Cells were trypsinized, pelleted and trypan blue positive cells were enumerated.

Test [5] has as its system MLO-Y4 osteocytic cells. Briefly: Etoposide-induced apoptosis of MLO-Y4 osteocytic cells (trypan blue uptake). It counts as cell-based, murine. The protocol:
Cells were pretreated with the indicated concentrations of the compounds for 1 hour before the addition of the pro-apoptotic agent etoposide. Apoptosis was determined after 6 hour by trypan blue uptake as described in FIG. 3. * indicates p<0.05 versus etoposide alone, by ANOVA (Student-Newman-Keuls method).
MLO-Y4 cells were pretreated for 1 hour with the pure receptor antagonist ICI182,780 (10^−7 M) before the addition of the test agents (10^−8 M). Apoptosis was induced and quantified as described in FIG. 3. * indicates p<0.05 versus etoposide alone, by ANOVA (Student-Newman-Keuls method).
In this experiment, MLO-Y4 cells were pretreated with the indicated concentrations of the various compounds for 1 h before the addition of the pro-apoptotic agent, etoposide. Apoptosis was determined after 6 h by trypan blue uptake as described in FIG. 3.

In test [6] the test system is HeLa cells transfected with estrogen receptor β (mERβ). Description: Etoposide-induced apoptosis of HeLa cells stably transfected with mERβ. It counts as cell-based, human. As to conditions: compound 10^−8 M 1 h, etoposide 5×10^−5 M 6 hour.
Text: as §1, §2

`C[C@@]12CCC[C@H]1[C@@H]1CCc3cc(O)ccc3[C@H]1CC2` [estratriene-3-ol]: in test [1] (1 hour pretreatment before etoposide), the “Inhibition of etoposide-induced osteoblast apoptosis” value is listed as “inhibition of etoposide-induced osteoblastic cell apoptosis was demonstrated”. In test [1] (compound 10^−8 M, 1 h pretreatment with ICI182,780 10^−7 M), the “Anti-apoptotic effect on osteoblastic cells after ICI182,780” value was “abrogated”. Also, the “Vertebral Compression” value in test [2] (Ovx mice, p < 0.00001) came to 85.57 ± 10.17 Newtons; in test [2] (intact mice, p < 0.006) it was 96.26 ± 15.92 Newtons. In test [3], the “Transactivation of an estrogen response element through the estrogen receptor α” value is on record as “did not transactivate”. Also, the “Effect on etoposide-induced apoptosis” value in test [4] and in test [6] was “potently inhibited” throughout. The “Inhibition of etoposide-induced apoptosis of osteocytic cell line” value in test [5] (1 h pretreatment before etoposide, trypan blue after 6 h) was “dose-dependently inhibited”. In addition, in test [5] (1 h pretreatment with ICI182,780 10^−7 M), the “Antiapoptotic effect on osteocytes after ICI182,780” value is listed as “abrogated”.
